Data on five compounds can be found in US6352996B1, “Liposomal prodrugs comprising derivatives of camptothecin and methods of treating cancer using these prodrugs” (priority 1999, dated 2002).

The test system of one series is U-937 cells. Nature of the series: Growth inhibition of U-937 cells treated with CPT esters. It is filed as cell-based. The following applies: 0.2 μM, 120 hr, percent of exponential growth of untreated cells (100%), mean of four estimates. As for the experimental part:
Growth inhibition of U-937 cells treated with various CPT esters.
Each identified compound was added to reach a culture of U-937 cell having a final concentration of 0.2 μM. The treatment time was for 120 hr. Growth inhibition in each of the treated cultures was then estimated as a percent of the exponential growth of the cells that was considered 100%. Each estimate was the mean value of four estimates.

The test system of another series is CLO breast carcinoma. The series can be described thus: Human breast carcinoma CLO xenograft in nude mice. To be noted: 8 mg/kg intramuscular twice a week, day 55 (FIG. 16). It is filed as in vivo. From the text:
Swiss nude mice of the NIH high fertility strain were bred and maintained pathogen-free in a laboratory. (Giovanella, B. C. and Stehlin, J. S. “Heterotransplantation of human malignant tumors in ‘nude’ thymusless mice. I. Breeding and maintenance of ‘nude’ mice.” J. Natl. Cancer Inst. 51: 615-619; 1973.)
Human malignant carcinomas of the colon, breast, lung, ovary, stomach, pancreas, bladder, prostate, osteosarcoma and malignant melanomas were heterotransplanted directly from patients into the nude mice and passaged serially. In particular, the tumors CLO, MUR, CAS, SW 48, SQU and BRO as described in Giovanella, B. C., Stehlin, J. S., Shepard, R. C. and Williams, L. J. “Correlation between response to chemotherapy of human tumors in patients and in nude mice.” Cancer 52: 1146-1152; 1983, tumor SCH as described in Heim, S., Mandahl, N., Arheden, K., Giovanella, B. C., Yim, S. O., Stehlin, J. S., Jr. and Mitebman, F. “Multiple karyotypic abnormalities including structural rearrangements of 11P in cell lines from malignant melanomas.” Cancer Genet. Cytogent, 35:5-20; 1988, and Verschraegen, C., Ciovanella, B. C., Mendoza, J. T., Kozielski, A. J. and Stehlin, J. S., Jr. “Specific organ metastases of human melanoma cells injected into the arterial circulation of nude mice.” Anticancer Res., In Press, and tumor PC-3 as described in Invest. Urol. 17, 16-23, 1979, were used. […]
Background: Xenograft models place foreign cells or tissue in a host animal.

Series [1] is described as follows: Closed lactone form in human plasma after oral administration. The following applies: for % present as closed lactone form in human blood/plasma: after oral administration (FIGS. 2, 4, 5, 7, 8).
The nature of series [2]: Closed lactone form in plasma of mice after intrastomach administration. The format is in vivo. The following applies: after i.s. administration, mouse (FIG. 3).
The test system of series [3] is human tumor xenografts. The following applies: in mice; cited from earlier work.
The subject of series [4] is human tumor xenografts.
For a further series, the system named is human malignancies. Nature of the series: Clinical responses in Phase I clinical trial patients. The format is in vivo. The following applies: in humans.
Series [5] in a line: Stability of lactone form in human plasma. It is filed as in vitro ADME. To be noted: for Percent in plasma (lactone, percent of the initial lactone amount added): 1 μg/ml. As for the experimental part: CPT or SF6A lactone was added to human plasma (1 μg/ml) and an incubation and lactone determination were made as described in Example 15. The lactone amount at each time-point was detected after removing the carboxylate form, and subsequently was calculated as percent of the initial lactone amount added. The results shown in this Table below were derived from one of the three independent experiments performed using different incubation times. The pattern of quantitation of the lactones was similar in all three experiments.

A short description of series [6]: Changes of body weights of mice during the test time period (toxicity). It is filed as in vivo. To be noted: nude mice. From the text:
The preferred derivatives display significant antitumor activity with much lower toxicity than their parent camptothecin, CPT. The animal experimental data for these new derivatives were collected. Camptothecin 20(S) propioniate (where R1 is ethyl and R2 is H) is designated as Prodrug 2 and taken as a example to disclose some in vivo experimental data. FIG. 6 represents the antitumor activity of this compound in different doses against the implanted human breast carcinoma (CLO) in nude mice. The change of body weight of mice is recorded with the time.

The conditions of series [7]: mouse liver homogenate, 2 μg SF6A/ml, 37° C.
Procedure: Determination of SF6A (Prodrug 2) and CPT in liver homogenate.
Mouse liver was homogenized in 4 volumes of ice-cold 0.15 M KCl with the aid of a Dounce homogenizer, then centrifuged at 15000 G for 10 min to remove particulate material. The supernatant, designated as liver homogenate, was transferred into a capped polypropylene tube, mixed with 2 μg SF6A/ml and incubated in a 37° C. water-bath. At the desired times, samples were removed and mixed with 4 volumes of ice-cold ethanol to precipitate proteins. The samples were stored at −20° C. until all were collected. Following centrifugation at 15000 G for 10 min, the clarified supernatants were subjected to analysis for determination of SF6A and CPT lactones by high pressure liquid chromatography (HPLC). The compounds were detected by fluorescence spectroscopy setting the excitation and emission wavelengths at 347 nm and 418 nm, respectively. CPT and SF6A have characteristic retention times of 3.5 min and 13.5 min, respectively.

Read-outs that look alike come from different tables or passages of the source.

`CC[C@@]1(OC(C)=O)C(=O)OCc2c1cc1n(c2=O)Cc2cc3ccccc3nc2-1` [CPT-acetate]: the Growth % in the series on U-937 cells was 92 ± 4%.
`CC=CC(=O)OC1(CC)C(=O)OCc2c1cc1n(c2=O)Cc2cc3ccccc3nc2-1` (stereo not drawn) [Compound IB, Camptothecin 20-O crotonate]: in the series on CLO breast carcinoma, the tumor size result was “actually reducing the tumor size”.
Same read-out and setting: under `CCC1(OC(=O)C2OC2C)C(=O)OCc2c1cc1n(c2=O)Cc2cc3ccccc3nc2-1` (stereo not drawn) [Compound IC, Camptothecin 20-O-2′, 3′-epoxy-butyrate] stands “stabilize the tumor size after a certain amount of time”.
In the case of `CC[C@@]1(O)C(=O)OCc2c1cc1n(c2=O)Cc2cc3c([N+](=O)[O-])cccc3nc2-1` [Example 9NC, 9-nitrocamptothecin, reference compound], in [1], the “% present as closed lactone form in human blood/plasma” value is approximately 3%. In addition, in [1] (oral administration to Phase I clinical trial patients, on average (FIGS. 4 and 5)), the “drug present in plasma in the closed lactone form” value is approximately 3%. Also, in [2], the “drug present in the plasma in the closed lactone form” value came to 57%. In the series with human tumor xenografts [3], the “potency relative to CPT against human tumor xenografts” value was 2-3 times. For the same compound, the values for the complete tumor regressions in the series with human tumor xenografts [4] (in mice) and in the series with human malignancies were 32/32 and 2/32, respectively.
For `CCC(=O)O[C@]1(CC)C(=O)OCc2c1cc1n(c2=O)Cc2cc3ccccc3nc2-1` [Prodrug 2, Camptothecin 20-O-propionate], the “Lactone % in Human Plasma” value is recorded as 100% in series [5] (Time 0 Hr); 86% in series [5] (Time 1 Hr); 77% in series [5] (Time 2 Hr); 68% in [5] (Time 4 Hr); 56% in series [5] (Time 6 Hr). Besides, the “time the lactone ring remained intact, versus CPT” value in series [5] (human plasma) is reported as “much longer”. Further, the “Percent in plasma (lactone, percent of the initial lactone amount added)” value in [5] (human plasma, incubation time 0.0 hr) is given as 100.0%; in [5] (human plasma, incubation time 1.0 hr), 86.0%; in series [5] (human plasma, incubation time 2.0 hr), 77.0%; in series [5] (human plasma, incubation time 4.0 hr), 68.0%; in series [5] (human plasma, incubation time 6.0 hr), 56.0%; in series [5] (human plasma, incubation time 27.0 hr), 9.0%. Besides, the “% present as closed lactone form in human blood/plasma” value in series [1] amounted to 2.8%. For the same compound, in [1] (human, oral administration, versus CPT or 9NC), the “increase of lactone share over the parent compound” value was “sevenfold”. For the same compound, the Body weight in series [6] (dose 5 mg/kg, day 21) was 21/33 gms; in [6] (dose 5 mg/kg, day 27), 27/33.7 gms; in series [6] (dose 5 mg/kg, day 34), 34/34.3 gms; in [6] (dose 5 mg/kg, day 41) it was 41/33.5 gms; in [6] (dose 5 mg/kg, day 48), 48/32.9 gms; in series [6] (dose 5 mg/kg, day 56), 56/33.2 gms. For the same compound, the Body weight in series [6] (dose 6 mg/kg, day 21) is given as 21/32.9 gms; in [6] (dose 6 mg/kg, day 27), 27/33.4 gms; in series [6] (dose 6 mg/kg, day 34), 34/33.8 gms; in series [6] (dose 6 mg/kg, day 41), 41/33.5 gms; in [6] (dose 6 mg/kg, day 48), 48/34.0 gms; in series [6] (dose 6 mg/kg, day 56), 56/32.2 gms. For the same compound, the Body weight in series [6] (dose 7 mg/kg, day 21) is recorded as 21/30.8 gms; in series [6] (dose 7 mg/kg, day 27), 27/31.7 gms; in series [6] (dose 7 mg/kg, day 34) it was 34/30.6 gms; in series [6] (dose 7 mg/kg, day 41), 41/31.1 gms; in series [6] (dose 7 mg/kg, day 48) it was 48/31.6 gms; in [6] (dose 7 mg/kg, day 56), 56/31.5 gms. The Body weight in series [6] (dose 8 mg/kg, day 21) is on record as 21/32.9 gms; in series [6] (dose 8 mg/kg, day 27), 27/34.1 gms; in [6] (dose 8 mg/kg, day 34), 34/34.0 gms; in series [6] (dose 8 mg/kg, day 41) it was 41/33.4 gms; in [6] (dose 8 mg/kg, day 48), 48/33.9 gms; in series [6] (dose 8 mg/kg, day 56), 56/33.2 gms. In [6] (doses 5-8 mg/kg), the “change of body weight of mice during the test time period” value was “no losses of mice body weights”. The Growth % in the series on U-937 cells was 31 ± 2%. Moreover, the “Amount determined: CPT (formed from SF6A)” value in [7] (incubation 0 min) came out at 0.00 µg/mL; in series [7] (incubation 10 min), 0.00 µg/mL; in series [7] (incubation 60 min) it was 0.00 µg/mL; in series [7] (incubation 6 hr) it was 0.00 µg/mL; in series [7] (incubation 24 hr) it was 0.47 µg/mL; in [7] (incubation 48 hr), 0.30 µg/mL. In addition, the “Amount determined: SF6A” value was 1.95 µg/mL in [7] (incubation 0 min); 2.06 µg/mL in series [7] (incubation 10 min); 2.05 µg/mL in series [7] (incubation 60 min); 2.05 µg/mL in [7] (incubation 6 hr); 0.96 µg/mL in [7] (incubation 24 hr); 0.90 µg/mL in series [7] (incubation 48 hr). Moreover, the toxicity result in the series on human tumor xenografts [4] (mice) was “exceptional lack of toxicity, even at enormous doses in mice”. The “antitumor activity against xenografts of human tumors” value with human tumor xenografts [4] (nude mice) is reported as “exhibits antitumor activity against human tumor xenografts”.
